Targets include Carbonic anhydrase 1 (Homo sapiens, UniProt P00915); Carbonic anhydrase 12 (Homo sapiens, UniProt O43570); Carbonic anhydrase 9 (Homo sapiens, UniProt Q16790); Carbonic anhydrase 2 (Homo sapiens, UniProt P00918); Carbonic anhydrase 14 (Homo sapiens, UniProt Q9ULX7).
Series [1] in a line: Solubility of the compound in water. The series is classed as physicochemical.

Sequence of Carbonic anhydrase 14 (Q9ULX7 whole entry): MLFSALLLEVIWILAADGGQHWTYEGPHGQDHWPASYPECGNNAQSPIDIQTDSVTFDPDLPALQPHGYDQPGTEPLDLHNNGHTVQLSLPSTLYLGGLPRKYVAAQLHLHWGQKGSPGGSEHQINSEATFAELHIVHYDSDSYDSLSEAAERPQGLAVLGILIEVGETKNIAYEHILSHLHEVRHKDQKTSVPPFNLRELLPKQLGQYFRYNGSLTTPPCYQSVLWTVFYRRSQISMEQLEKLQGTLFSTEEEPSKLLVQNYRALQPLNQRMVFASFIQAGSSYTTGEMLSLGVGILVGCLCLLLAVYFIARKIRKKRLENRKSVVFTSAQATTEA
Sequence of Carbonic anhydrase 12 (O43570 whole entry): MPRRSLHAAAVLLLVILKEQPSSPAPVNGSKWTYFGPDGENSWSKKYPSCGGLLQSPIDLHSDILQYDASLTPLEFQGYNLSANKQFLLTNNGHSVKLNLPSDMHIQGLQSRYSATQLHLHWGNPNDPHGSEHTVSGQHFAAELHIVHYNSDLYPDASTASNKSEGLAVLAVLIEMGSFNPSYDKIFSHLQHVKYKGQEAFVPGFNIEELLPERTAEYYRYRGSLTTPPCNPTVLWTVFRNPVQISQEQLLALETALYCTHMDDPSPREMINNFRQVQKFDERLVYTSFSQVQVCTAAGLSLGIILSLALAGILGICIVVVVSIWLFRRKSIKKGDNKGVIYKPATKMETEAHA
Sequence of Carbonic anhydrase 1 (P00915 whole entry): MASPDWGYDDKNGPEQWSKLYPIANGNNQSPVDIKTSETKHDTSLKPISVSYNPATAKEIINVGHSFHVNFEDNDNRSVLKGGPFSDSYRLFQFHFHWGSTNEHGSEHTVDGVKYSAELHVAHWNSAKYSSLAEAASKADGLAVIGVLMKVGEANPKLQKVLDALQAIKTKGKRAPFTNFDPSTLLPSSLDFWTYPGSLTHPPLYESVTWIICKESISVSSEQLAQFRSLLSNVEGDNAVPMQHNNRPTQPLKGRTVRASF

What is called Ki is a dissociation constant, usually derived from enzyme kinetics or from competition with a known ligand. Lower therefore signals a stronger hold on the target. In general, solubility refers to the dissolved amount per volume that the medium holds. High values mean a readily soluble substance, low ones a poorly soluble substance. In the case of `NS(=O)(=O)c1ccc(NC(=S)N[C@@H]2O[C@H](CO)[C@@H](O[C@@H]3O[C@H](CO)[C@H](O)[C@H](O)[C@H]3O)[C@H](O)[C@H]2O)cc1`, the Ki on Carbonic anhydrase 1 turned out to be 7980 nM; on Carbonic anhydrase 12, 81 nM; on Carbonic anhydrase 9 it was 258 nM; on Carbonic anhydrase 2, 6.9 nM; at Carbonic anhydrase 14, 55 nM. The solubility in series [1] is greater than 20 mg/mL.
With `NS(=O)(=O)c1ccc(CNC(=S)N[C@@H]2O[C@H](CO)[C@@H](O[C@@H]3O[C@H](CO)[C@H](O)[C@H](O)[C@H]3O)[C@H](O)[C@H]2O)cc1`, the Ki amounted to 4060 nM at Carbonic anhydrase 1; 7.9 nM at Carbonic anhydrase 12; 8.3 nM on Carbonic anhydrase 9; 105 nM at Carbonic anhydrase 2; 44 nM at Carbonic anhydrase 14. The molecule further showed a solubility in series [1] greater than 20 mg/mL.
For `NS(=O)(=O)c1ccc(CCNC(=S)N[C@@H]2O[C@H](CO)[C@@H](O[C@@H]3O[C@H](CO)[C@H](O)[C@H](O)[C@H]3O)[C@H](O)[C@H]2O)cc1`, the Ki came out at 100 nM on Carbonic anhydrase 1; 13.5 nM at Carbonic anhydrase 12; 8.9 nM at Carbonic anhydrase 9; 9 nM at Carbonic anhydrase 2; 8.4 nM at Carbonic anhydrase 14. In series [1], this molecule showed a solubility greater than 20 mg/mL.

The values above are taken from ChEMBL document CHEMBL1955849, “Design and synthesis of thiourea compounds that inhibit transmembrane anchored carbonic anhydrases” (Bioorg Med Chem, 2012).
